Data on one substance can be found in US7262309B2, “1- or 3-thia-benzonaphthoazulenes as inhibitors of tumor necrosis factor production and intermediates for the preparation thereof” (GlaxoSmith Kline Istrazivocki Centar Zagreb, D.O.O., priority 2002, dated 2007).

This test relates to TNF-α and IL-1 secretion. Put plainly: investigated assays, not specified which (TNF-α/IL-1 secretion in human PBMC and in mouse peritoneal macrophages, LPS-induced TNF-α/IL-1 secretion in mice, writhing assay, LPS-induced shock in mice). The conditions noted are these: assays not named; active = IC-50 20 μM or lower (PBMC), 10 μM or lower (macrophages), 30% or more inhibition of TNF-α at 10 mg/kg, analgetic activity as acetylsalicylic acid or better, survival 40% or more at 30 mg/kg. The protocol:
Human peripheral blood mononuclear cells (PBMC) were prepared from heparinized whole blood after separating PBMC on Ficoll-Paque™Plus (Amersham-Pharmacia). To determine the TNF-α level, 3.5-5×10^4 cells were cultivated in a total volume of 200 μl for 18 to 24 hours on microtitre plates with a flat bottom (96 wells, Falcon) in RPMI 1640 medium, into which there were added 10% FBS (Fetal Bovine Serum, Biowhittaker) previously inactivated at 54° C./30 min, 100 units/ml of penicillin, […] of streptomycin and 20 mM HEPES (GIBCO). The cells were incubated at 37° C. in an atmosphere with 5% CO2 and 90% humidity. […] The IL-1 level was determined in an assay under the same conditions and with the same number of cells and the same concentration of the stimulus by ELISA procedure (R&D Systems). The percentage of inhibition of TNF-α or IL-1 production was calculated by the equation: % inhibition=[1−(TS−NC)/(PC−NC)]*100. […]
In order to obtain peritoneal macrophages, Balb/C mouse strain males, age 8 to 12 weeks, were injected i.p. with 300 μg of zymosan (SIGMA) dissolved in a phosphate buffer (PBS) in a total volume of 0.1 ml/mouse. […] The TNF-α level in the cell supernatant was determined by ELISA procedure (R&D Systems, Biosource). The IL-1 level was determined in an assay identical to the assay for TNF-α by ELISA procedure (R&D Systems). […]
Background: Writhing tests count abdominal constrictions after an irritant is injected.

For “Dimethyl-[3-(11-methoxy-8-oxa-1-thia-benzo[e]naphtho[3,2-h]azulene-2-ylmethoxy)-propyl]-amine [Example 7]”, the “activity in at least two investigated assays” value is “show activity in at least two investigated assays”.
